Some test systems named below: NCI-H460 lung; SW-620 colon; MALME-3M melanoma; SNB-19 CNS; HOP-92 NSCLC; MDA-MB-435; U251 CNS; MOLT-4 leukemia; ACHN renal; TK-10 renal.
Holding throughout (assay): NCI-60 cell line screen, 48 h

The values below come from PubChem BioAssay (NCI).

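Growth conditions: 96-well plates. Treatment: test compound, 48 hours, 5 concentrations. Analysis: linear interpolation between bracketing concentrations; unreached endpoints set to highest concentration. Abbreviation: GI50, concentration required for 50% inhibition of growth. TGI is the concentration that stops growth completely.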

For `O=C(O)c1ccc2cccnc2c1O`, the GI50 in the test with NCI-H460 lung is 0.551 µM; with SW-620 colon, 2 µM; in the test on MALME-3M melanoma, 1.84 µM; with SNB-19 CNS it was 1.48 µM; with HOP-92 NSCLC, 0.832 µM; in the test with MDA-MB-435, 0.87 µM. Further, the GI50 was 0.672 µM in the test with U251 CNS, 1.82 µM in the test with MOLT-4 leukemia, 1.7 µM in the test on ACHN renal and 1.85 µM in the test on TK-10 renal. In addition, the TGI in the test on NCI-H460 lung was 11.1 µM; in the test on SW-620 colon it was over 100 µM; with MALME-3M melanoma it was 4.41 µM; with SNB-19 CNS, over 100 µM; in the test on HOP-92 NSCLC, 2.74 µM; in the test on MDA-MB-435, 35.8 µM. Further, the TGI in the test on U251 CNS is over 59.4 µM; in the test on MOLT-4 leukemia, over 70.3 µM; with ACHN renal, 11.3 µM; in the test with TK-10 renal, over 100 µM.

For `COc1cccc2ccc3c(c12)C(=O)OC31CCc2c(C)cccc21` (stereo not given), the TGI in the test with NCI-H460 lung was over 31.6 µM; with SW-620 colon, over 46.4 µM; in the test on MALME-3M melanoma, over 46.4 µM; with SNB-19 CNS it was over 46.4 µM; in the test on HOP-92 NSCLC it was 87.9 µM; in the test on MDA-MB-435 it was over 100 µM. In addition, the TGI was over 46.4 µM with U251 CNS, 33.7 µM in the test on MOLT-4 leukemia, 40.5 µM in the test on ACHN renal and over 100 µM in the test on TK-10 renal.

`CCC(=O)OC1=CN2C(=NC(c3ccc(N)cc3)=CC2c2cc(OC)c(OC)c(OC)c2)S1` (stereo not given): the GI50 was 2.61 µM with NCI-H460 lung; 2.89 µM with SW-620 colon; 4 µM in the test with MALME-3M melanoma; 3.59 µM in the test with SNB-19 CNS; 1.76 µM in the test on HOP-92 NSCLC; 2.98 µM with MDA-MB-435. Further, the GI50 in the test on U251 CNS was 3.49 µM; in the test with MOLT-4 leukemia, 3.89 µM; with ACHN renal, 3.35 µM; with TK-10 renal, 4 µM. Also, the TGI amounted to 8.52 µM in the test on NCI-H460 lung; 10.7 µM in the test on SW-620 colon; 16.3 µM in the test on MALME-3M melanoma; 16.4 µM with SNB-19 CNS; 7.37 µM in the test on HOP-92 NSCLC; 14.1 µM in the test on MDA-MB-435. Moreover, the TGI in the test on U251 CNS stood at 13.8 µM; in the test with MOLT-4 leukemia, 64.7 µM; in the test with ACHN renal, 18.2 µM; in the test with TK-10 renal, 16.1 µM.

For the molecule `Cc1[nH]n(-c2ccccc2)c(=O)c1C(=O)c1ccccc1`, the GI50 was over 19.5 µM in the test on NCI-H460 lung; over 25 µM in the test with SW-620 colon; over 25 µM with MALME-3M melanoma; over 15.7 µM in the test with SNB-19 CNS; over 10.6 µM with HOP-92 NSCLC; over 25 µM with MDA-MB-435. The GI50 in the test on U251 CNS is 16.2 µM; in the test with MOLT-4 leukemia, over 25 µM; in the test on ACHN renal, over 25 µM; in the test with TK-10 renal it was over 25 µM. Moreover, the TGI with NCI-H460 lung, with SW-620 colon, in the test with MALME-3M melanoma, in the test with SNB-19 CNS, in the test on HOP-92 NSCLC and in the test on MDA-MB-435 was over 25 µM throughout. Besides, the TGI in the test on U251 CNS, in the test with MOLT-4 leukemia, with ACHN renal and in the test on TK-10 renal was over 25 µM each time.

As for `O=c1[nH]cnc2nc(-c3ccc(N(CCCl)CCCl)cc3)[nH]c12`, the GI50 with NCI-H460 lung was 4.51 µM; with SW-620 colon it was 6.46 µM; in the test with MALME-3M melanoma, 33 µM; in the test on SNB-19 CNS it was 19.3 µM; in the test on HOP-92 NSCLC it was 17.8 µM; in the test with MDA-MB-435, 3.21 µM. Further, the GI50 in the test with U251 CNS was 20.1 µM; in the test on MOLT-4 leukemia, over 100 µM; in the test on ACHN renal, 2.58 µM; with TK-10 renal it was 15.4 µM. Also, the TGI with NCI-H460 lung, with SW-620 colon, in the test on MALME-3M melanoma, with SNB-19 CNS, in the test on HOP-92 NSCLC and in the test with MDA-MB-435 was over 100 µM each time. Further, the TGI with U251 CNS was over 100 µM; with MOLT-4 leukemia, over 100 µM; with ACHN renal, 33.5 µM; in the test on TK-10 renal it was 48.4 µM.

With `CC(C)(O)CCC(O)C(C)(O)C1CCC2(O)C3=CC(=O)C4(O)CC(O)C(O)CC4(C)C3CCC12C` (stereo not given) (tested in a mixture with another compound), the TGI in the test with NCI-H460 lung, in the test on SW-620 colon, in the test with MALME-3M melanoma, in the test on SNB-19 CNS, with HOP-92 NSCLC and in the test with MDA-MB-435 was over 100 µM throughout. Also, the TGI in the test on U251 CNS, in the test on MOLT-4 leukemia, in the test with ACHN renal and in the test with TK-10 renal was over 100 µM each time.

Turning to `C[C@H]1CC2=CC(=O)CC[C@]2(C)[C@H]2CC[C@@]3(C)[C@@H](CC[C@]3(C)O)[C@H]12`, the GI50 in the test with NCI-H460 lung is 30 µM; in the test on SW-620 colon it was 35.8 µM; in the test on MALME-3M melanoma, 26 µM; in the test with SNB-19 CNS, 43.3 µM; with HOP-92 NSCLC, 8.66 µM; in the test on MDA-MB-435 it was 29.3 µM. Besides, the GI50 in the test with U251 CNS was 31 µM; with MOLT-4 leukemia it was 19.3 µM; in the test with ACHN renal, 27.6 µM; in the test with TK-10 renal, 31.5 µM. Besides, the TGI with NCI-H460 lung was over 100 µM; with SW-620 colon, over 100 µM; in the test with MALME-3M melanoma, over 92.4 µM; in the test with SNB-19 CNS it was over 100 µM; with HOP-92 NSCLC, 44.3 µM; with MDA-MB-435, over 88 µM. Moreover, the TGI with U251 CNS was over 100 µM; with MOLT-4 leukemia, 50.6 µM; with ACHN renal, over 100 µM; in the test on TK-10 renal it was 97.5 µM.

Take `Cc1cc(Cl)ccc1NC(=O)NC(C)(C)COC(=O)Nc1cccc(Cl)c1`: the GI50 is 4.86 µM in the test with NCI-H460 lung; 7.45 µM in the test on SW-620 colon; 9.6 µM in the test on MALME-3M melanoma; 5.57 µM in the test on SNB-19 CNS; 3.48 µM in the test on HOP-92 NSCLC; 10.9 µM in the test on MDA-MB-435. The GI50 was 4.56 µM with U251 CNS, 6.19 µM in the test on MOLT-4 leukemia, 5.6 µM in the test on ACHN renal and 8.86 µM in the test on TK-10 renal. The TGI with NCI-H460 lung is 36.7 µM; in the test on SW-620 colon, over 100 µM; in the test with MALME-3M melanoma it was 50.3 µM; in the test with SNB-19 CNS, over 100 µM; with HOP-92 NSCLC, 26.4 µM; in the test with MDA-MB-435, 49.4 µM. Further, the TGI in the test on U251 CNS was 19.3 µM; with MOLT-4 leukemia, 79 µM; in the test with ACHN renal, over 100 µM; with TK-10 renal it was over 100 µM.
